The values that follow are results of earlier work, collected in patent publication US20080200497A1, “Hepatitis C Inhibitor Peptide Analogs” (priority 2005, published 2008).

This data set deals with hepatitis C virus. The conditions noted are these: two day clinical trial, patients infected with the hepatitis C virus.

For `COc1ccc2c(O[C@@H]3C[C@H]4C(=O)N[C@]5(C(=O)O)C[C@H]5/C=C\CCCCC[C@H](NC(=O)OC5CCCC5)C(=O)N4C3)cc(-c3csc(NC(C)C)n3)nc2c1` [BILN 2061], the “reduction of viral loads” value is “effective in rapidly reducing viral loads”.
